Assay results reported in US20230086702A1, “SUBSTITUTED 2-AMINO-PYRAZOLYL-[1,2,4]TRIAZOLO[1,5A]PYRIDINE DERIVATIVES AND USE THEREOF” (The Johns Hopkins University, priority 2019, published 2023).

Legend:
[1] = biological target: T1, DLK (Homo sapiens, UniProt Q12852); assay: DLK biochemical assay (TR-FRET, MKK7 phosphorylation)
T1 construct: 10 nM DLK, catalytic domain, Carna Biosiences; purchased Carna Biosciences ('Carna Biosiences' [sic])
T1 sequence (Q12852 125-366 limits assumed): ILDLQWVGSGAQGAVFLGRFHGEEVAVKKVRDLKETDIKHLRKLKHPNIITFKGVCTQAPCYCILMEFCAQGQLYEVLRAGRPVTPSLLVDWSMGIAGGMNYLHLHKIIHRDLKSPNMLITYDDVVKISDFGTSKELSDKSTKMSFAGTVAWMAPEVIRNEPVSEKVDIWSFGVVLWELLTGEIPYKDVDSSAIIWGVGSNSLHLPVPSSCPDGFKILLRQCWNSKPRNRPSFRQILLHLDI
Procedure, shortened: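 DLK catalytic domain (10 nM) phosphorylates His-MKK7 (15 nM) at 60 μM ATP for 90 min at RT in pH 7.5 Hepes buffer (final concentrations). Phospho-T275/S277 is detected by TR-FRET (Eu anti-phospho donor, XL665 anti-His acceptor) after 16 h at 37° C (1536 format) or 4° C (384 format).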

[2] = biological target: T2, LZK (Homo sapiens, UniProt O43283); assay: LZK biochemical assay (TR-FRET, MKK7 phosphorylation)
T2 construct: 10 nM LZK, catalytic domain, Carna Biosiences in assay buffer; purchased Carna Biosciences ('Carna Biosiences' [sic])
T2 sequence (O43283 168-409 limits assumed): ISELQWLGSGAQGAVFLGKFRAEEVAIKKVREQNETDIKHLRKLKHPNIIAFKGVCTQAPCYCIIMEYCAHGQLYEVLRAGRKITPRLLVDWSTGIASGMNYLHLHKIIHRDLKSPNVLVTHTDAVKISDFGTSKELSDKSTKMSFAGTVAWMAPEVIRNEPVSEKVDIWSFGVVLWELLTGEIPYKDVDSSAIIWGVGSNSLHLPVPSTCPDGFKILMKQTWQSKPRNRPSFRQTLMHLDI
Procedure, shortened: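 LZK catalytic domain (10 nM) phosphorylates His-MKK7 (15 nM) with 15 µM ATP, all final, for 90 min at RT in HEPES buffer pH 7.5 with MgCl2. Phospho-T275/S277 detected by TR-FRET (Eu anti-phospho donor, XL665 anti-His acceptor) after 16 h at 32 °C in EDTA stop buffer. Inhibition lowers the 665/Eu ratio.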

`CCC(c1ccc(C(F)(F)F)nc1)n1cc(-c2cc(-c3cnn(CC(F)F)c3)c3nc(N)nn3c2)cn1` (single isomer, unassigned) [II-109, 8-[1-(2,2-Difluoroethyl)-1H-pyrazol-4-yl]-6-(1-{1-[6-(trifluoromethyl)pyridin-3-yl]propyl}-1H-pyrazol-4-yl)[1,2,4]triazolo[1,5-a]pyridin-2-amine] showed an IC50 [1] of 16 nM and an IC50 [2] of 57 nM.
Compound `CCC(c1ccc(C(F)F)nc1)n1cc(-c2cc(-c3ccc(C4CC4)nc3)n3nc(N)nc3c2)cn1` (single isomer, unassigned) [II-68, 5-(6-Cyclopropylpyridin-3-yl)-7-(1-{1-[6-(difluoromethyl)pyridin-3-yl]propyl}-1H-pyrazol-4-yl)[1,2,4]triazolo[1,5-a]pyridin-2-amine] has an IC50 [1] of 36 nM and an IC50 [2] of 86 nM.
For `CCC(c1ccc(C(F)F)nc1)n1cc(-c2cc(-c3ccc(C4CC4)nc3)n3nc(N)nc3c2)cn1` (racemic) [II-67, 5-(6-Cyclopropylpyridin-3-yl)-7-(1-{1-[6-(difluoromethyl)pyridin-3-yl]propyl}-1H-pyrazol-4-yl)[1,2,4]triazolo[1,5-a]pyridin-2-amine], the IC50 [1] was 12 nM and the IC50 [2] was 15 nM.
`Nc1nc2cc(-c3cnn(C(c4ccc(C(F)F)nc4)C4CCOCC4)c3)cc(-c3ccc(C(F)(F)F)nc3)n2n1` (single isomer, unassigned) [II-78, 7-(1-{[6-(Difluoromethyl)pyridin-3-yl](tetrahydro-2H-pyran-4-yl)methyl}-1H-pyrazol-4-yl)-5-[6-(trifluoromethyl)pyridin-3-yl][1,2,4]triazolo[1,5-a]pyridin-2-amine] showed an IC50 [1] of 5.2 nM and an IC50 [2] of 5.3 nM.
`CC(C)C(c1ccc(C(F)(F)F)nc1)n1cc(-c2cc(-c3ccc(C4CC4)nc3)n3nc(N)nc3c2)cn1` (racemic) [II-58, 5-(6-Cyclopropylpyridin-3-yl)-7-(1-{2-methyl-1-[6-(trifluoromethyl)pyridin-3-yl]propyl}-1H-pyrazol-4-yl)[1,2,4]triazolo[1,5-a]pyridin-2-amine] gave an IC50 [1] of 21 nM and an IC50 [2] of 22 nM.
`CC(C)[C@@H](c1ccc(C(F)(F)F)nc1)n1cc(-c2cc(-c3cnn(C4CCCC4)c3)n3nc(N)nc3c2)cn1` [II-145] showed an IC50 [1] of 3.3 nM and an IC50 [2] of 9.9 nM.
For `CCC(c1ccc(C(F)(F)F)nc1)n1cc(-c2cc(-c3ccc(=O)n(C(F)F)c3)n3nc(N)nc3c2)cn1` (single isomer, unassigned) [II-180, 5-[2-Amino-7-(1-{1-[6-(trifluoromethyl)pyridin-3-yl]propyl}-1H-pyrazol-4-yl)[1,2,4]triazolo[1,5-a]pyridin-5-yl]-1-(difluoromethyl)pyridin-2(1H)-one], the IC50 [1] was 34 nM and the IC50 [2] was 79 nM.
With `Nc1nc2cc(-c3cnn(C(c4ccc(C(F)(F)F)nc4)C4CCOCC4)c3)cc(-c3ccc(=O)n(CC(F)F)c3)n2n1` (single isomer, unassigned) [II-186, 5-[2-Amino-7-(1-{tetrahydro-2H-pyran-4-yl[6-(trifluoromethyl)pyridin-3-yl]methyl}-1H-pyrazol-4-yl)[1,2,4]triazolo[1,5-a]pyridin-5-yl]-1-(2,2-difluoroethyl)pyridin-2(1H)-one] the IC50 [1] was 4.1 nM and the IC50 [2] was 4.5 nM.
`CC(C)C(c1ccc(C(F)(F)F)nc1)n1cc(-c2cc(-c3ccc(C4CC(F)(F)C4)nc3)n3nc(N)nc3c2)cn1` (single isomer, unassigned) [II-75, 5-[6-(3,3-Difluorocyclobutyl)pyridin-3-yl]-7-(1-{2-methyl-1-[6-(trifluoromethyl)pyridin-3-yl]propyl}-1H-pyrazol-4-yl)[1,2,4]triazolo[1,5-a]pyridin-2-amine] gave an IC50 [1] of 27 nM and an IC50 [2] of 15 nM.
In the case of `CCC(c1ccc(C(F)(F)F)cc1)n1cc(-c2cc(-c3cnn(C)c3)c3nc(N)nn3c2)cn1` (racemic) [II-99, 8-(1-Methyl-1H-pyrazol-4-yl)-6-(1-{1-[4-(trifluoromethyl)phenyl]propyl}-1H-pyrazol-4-yl)[1,2,4]triazolo[1,5-a]pyridin-2-amine], the IC50 [1] is reported as 9.2 nM and the IC50 [2] is reported as 150 nM.
`Nc1nc2cc(-c3cnn(Cc4ccccc4)c3)cc(-c3cnn(C4CCOCC4)c3)n2n1` [II-126, 7-(1-Benzyl-1H-pyrazol-4-yl)-5-[1-(tetrahydro-2H-pyran-4-yl)-1H-pyrazol-4-yl][1,2,4]triazolo[1,5-a]pyridin-2-amine] gave an IC50 [1] of 60 nM and an IC50 [2] of 220 nM.
`CCS(=O)(=O)c1cccc(-c2cc(-c3cnn(C(c4ccc(C(F)(F)F)nc4)C4CCOCC4)c3)cn3nc(N)nc23)c1` (single isomer, unassigned) [II-18, 8-[3-(Ethylsulfonyl)phenyl]-6-(1-{tetrahydro-2H-pyran-4-yl[6-(trifluoromethyl)pyridin-3-yl]methyl}-1H-pyrazol-4-yl)[1,2,4]triazolo[1,5-a]pyridin-2-amine] was tested, and the IC50 [1] was 0.3 nM and the IC50 [2] was 1.5 nM.
`Nc1nc2c(-c3ccc(=O)n(CC(F)(F)F)c3)cc(-c3cnn(C(c4ccc(C(F)(F)F)nc4)C4CCOCC4)c3)cn2n1` (centres unmarked) [II-160] showed an IC50 [1] of 1.5 nM and an IC50 [2] of 5.9 nM.
Compound `CC(C)C(c1ccc(C(F)F)nc1)n1cc(-c2cc(-c3ccc(C(F)(F)F)nc3)n3nc(N)nc3c2)cn1` (single isomer, unassigned) [II-66, 7-(1-{1-[6-(Difluoromethyl)pyridin-3-yl]-2-methylpropyl}-1H-pyrazol-4-yl)-5-[6-(trifluoromethyl)pyridin-3-yl][1,2,4]triazolo[1,5-a]pyridin-2-amine] has an IC50 [1] of 45 nM and an IC50 [2] of 43 nM.
`Nc1nc2c(-c3ccc(=O)n(CC(F)(F)F)c3)cc(-c3cnn(C(c4ccc(C(F)(F)F)nc4)C4CCOCC4)c3)cn2n1` (single isomer, unassigned) [II-161, 5-[2-Amino-6-(1-{tetrahydro-2H-pyran-4-yl[6-(trifluoromethyl)pyridin-3-yl]methyl}-1H-pyrazol-4-yl)[1,2,4]triazolo[1,5-a]pyridin-8-yl]-1-(2,2,2-trifluoroethyl)pyridin-2(1H)-one] was tested, and the IC50 [1] was 8.5 nM and the IC50 [2] was 12 nM.
`CCC(c1ccc(C(F)F)nc1)n1cc(-c2cc(-c3cnn(CC(F)(F)F)c3)c3nc(N)nn3c2)cn1` (single isomer, unassigned) [II-107, 6-(1-{1-[6-(Difluoromethyl)pyridin-3-yl]propyl}-1H-pyrazol-4-yl)-8-[1-(2,2,2-trifluoroethyl)-1H-pyrazol-4-yl][1,2,4]triazolo[1,5-a]pyridin-2-amine] showed an IC50 [1] of 4 nM and an IC50 [2] of 10 nM.
`CCc1nnc(-c2cc(-c3cnn(Cc4ccccc4)c3)cn3nc(N)nc23)s1` [II-197, 6-(1-Benzyl-1H-pyrazol-4-yl)-8-(5-ethyl-1,3,4-thiadiazol-2-yl)[1,2,4]triazolo[1,5-a]pyridin-2-amine] was tested, and the IC50 [1] was 240 nM and the IC50 [2] was 690 nM.
With `Nc1nc2c(-c3ccc(=O)n(C(F)F)c3)cc(-c3cnn(C(c4ccc(C(F)(F)F)nc4)C4CCOCC4)c3)cn2n1` (single isomer, unassigned) [II-155, 5-[2-Amino-6-(1-{tetrahydro-2H-pyran-4-yl[6-(trifluoromethyl)pyridin-3-yl]methyl}-1H-pyrazol-4-yl)[1,2,4]triazolo[1,5-a]pyridin-8-yl]-1-(difluoromethyl)pyridin-2(1H)-one] the IC50 [1] was 1 nM and the IC50 [2] was 3.1 nM.
Compound `Nc1nc2cc(-c3cnn(C(c4ccccc4)C4CCOCC4)c3)cc(-c3cnn(CC(F)(F)F)c3)n2n1` (single isomer, unassigned) [II-147, 7-{1-[Phenyl(tetrahydro-2H-pyran-4-yl)methyl]-1H-pyrazol-4-yl}-5-[1-(2,2,2-trifluoroethyl)-1H-pyrazol-4-yl][1,2,4]triazolo[1,5-a]pyridin-2-amine] has an IC50 [1] of 2.3 nM and an IC50 [2] of 73 nM.
Compound `Nc1nc2c(-c3cnn(CC(F)(F)F)c3)cc(-c3cnn(C4CCN(C5COC5)CC4)c3)cn2n1` [II-120, 6-{1-[1-(Oxetan-3-yl)piperidin-4-yl]-1H-pyrazol-4-yl}-8-[1-(2,2,2-trifluoroethyl)-1H-pyrazol-4-yl][1,2,4]triazolo[1,5-a]pyridin-2-amine] has an IC50 [1] of 240 nM and an IC50 [2] of 140 nM.
In the case of `CN(C)c1cccc(-c2cc(-c3cnn(C(c4ccc(C(F)(F)F)nc4)C4CCOCC4)c3)cn3nc(N)nc23)c1` (racemic) [II-22, 8-[3-(Dimethylamino)phenyl]-6-(1-{tetrahydro-2H-pyran-4-yl[6-(trifluoromethyl)pyridin-3-yl]methyl}-1H-pyrazol-4-yl)[1,2,4]triazolo[1,5-a]pyridin-2-amine], the IC50 [1] is reported as 2.2 nM and the IC50 [2] is reported as 6.6 nM.
In the case of `CC[C@@H](c1ccccc1)n1cc(-c2cc(-c3cnn(CCO)c3)c3nc(N)nn3c2)cn1` [II-97, 2-[4-(2-Amino-6-{1-[(1S)-1-phenylpropyl]-1H-pyrazol-4-yl}[1,2,4]triazolo[1,5-a]pyridin-8-yl)-1H-pyrazol-1-yl]ethan-1-ol], the IC50 [1] is reported as 8.1 nM and the IC50 [2] is reported as 380 nM.
